From article PMC8308585, “Design and Synthesis of Novel Thiazolo[5,4-d]pyrimidine Derivatives with High Affinity for Both the Adenosine A1 and A2A Receptors, and Efficacy in Animal Models of Depression” (Pharmaceuticals, 2021)
Like-named read-outs stand apart in the source and are kept apart here.

Legend:
[1] = target: T1, hA2B AR (Homo sapiens, UniProt P29275); design: method as in PMID 30638876; conditions: inhibition of NECA-stimulated adenylyl cyclase activity, CHO cells; ref [34]; cited from earlier work
T1 construct: expressed in transfected cells; host or cells: CHO cells
T1 sequence (P29275 1-332): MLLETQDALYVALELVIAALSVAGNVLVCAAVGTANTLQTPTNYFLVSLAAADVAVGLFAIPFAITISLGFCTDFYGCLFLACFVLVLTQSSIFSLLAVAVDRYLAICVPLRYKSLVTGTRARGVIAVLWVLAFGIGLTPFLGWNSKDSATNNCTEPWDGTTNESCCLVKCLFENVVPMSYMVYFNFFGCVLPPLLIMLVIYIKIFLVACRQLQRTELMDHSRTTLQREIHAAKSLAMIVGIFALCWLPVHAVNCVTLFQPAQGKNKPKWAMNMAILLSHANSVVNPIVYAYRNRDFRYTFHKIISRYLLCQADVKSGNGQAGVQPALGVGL

[2] = target: T1, hA2B AR; test: Inhibition of NECA-stimulated adenylyl cyclase activity (cAMP) in CHO cells expressing hA2B AR; type: cell-based; conditions: mean ± SEM
Experimental: Compounds 1–19 were evaluated for their binding affinity at hA1, hA2A, and hA3 ARs, stably transfected in Chinese hamster ovary (CHO) cells. […].
The binding affinity of the novel compounds was evaluated using radioligand competition experiments in CHO cells stably transfected with hA1 AR, hA2A AR, and hA3 AR subtypes. […]; The potency at hA2B AR, expressed on CHO cells, was determined by inhibition of NECA-stimulated adenylyl cyclase activity. […]
(§1) Binding data and concentration–response curves were fitted by a nonlinear regression with the Prism program (GraphPAD Prism 7 Software, San Diego, CA, USA). Each concentration was tested 3–5 times in duplicate and the Ki or IC50 (the concentration of antagonists that produces 50% inhibition of the agonist effect) values are given as the mean ± standard error (S.E.).

[3] = target: T2, hA3 AR (Homo sapiens, UniProt P0DMS8); test: Radioligand binding, displacement of [3H]-HEMADO at hA3 AR in CHO cells; conditions: displacement of specific [3H]-HEMADO binding, mean ± SEM
T2 construct: expressed in transfected cells; host or cells: CHO cells
T2 sequence (P0DMS8 1-318): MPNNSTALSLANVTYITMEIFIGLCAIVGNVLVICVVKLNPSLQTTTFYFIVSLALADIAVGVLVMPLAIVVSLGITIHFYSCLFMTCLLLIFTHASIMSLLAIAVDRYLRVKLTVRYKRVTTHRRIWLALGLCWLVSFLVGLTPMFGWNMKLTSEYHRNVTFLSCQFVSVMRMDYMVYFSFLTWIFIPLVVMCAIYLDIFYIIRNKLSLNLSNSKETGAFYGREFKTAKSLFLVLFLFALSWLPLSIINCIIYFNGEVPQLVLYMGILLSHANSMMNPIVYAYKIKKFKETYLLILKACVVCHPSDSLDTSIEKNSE
Experimental: (§5) CHO cells, stably expressing hARs, were grown adherently and maintained in Dulbecco’s modified Eagle’s medium (DMEM) with nutrient mixture F12 supplemented with 10% fetal bovine serum (FBS), penicillin (100 µg/mL), streptomycin (100 µg/mL), sodium pyruvate (1 mM), and geneticin (0.1 mg/mL).
(§6) Briefly, cells were homogenized in cold lysis buffer (5 mM Tris HCl, 2 mM EDTA, pH 7.4), centrifuged at low speed spin for 10 min, and subsequently, the supernatant was spun at 37,000 rpm. Membrane pellet was resuspended in the specific buffer and stored at −80 °C.

[4] = target: T3, human A1 AR (Homo sapiens, UniProt P30542); test: Radioligand binding, displacement of [3H]-CCPA at hA1 AR in CHO cells; conditions: displacement of specific [3H]-CCPA binding, n = 3–6, mean ± SEM
T3 construct: expressed in transfected cells; host or cells: CHO cells
T3 sequence (P30542 1-326): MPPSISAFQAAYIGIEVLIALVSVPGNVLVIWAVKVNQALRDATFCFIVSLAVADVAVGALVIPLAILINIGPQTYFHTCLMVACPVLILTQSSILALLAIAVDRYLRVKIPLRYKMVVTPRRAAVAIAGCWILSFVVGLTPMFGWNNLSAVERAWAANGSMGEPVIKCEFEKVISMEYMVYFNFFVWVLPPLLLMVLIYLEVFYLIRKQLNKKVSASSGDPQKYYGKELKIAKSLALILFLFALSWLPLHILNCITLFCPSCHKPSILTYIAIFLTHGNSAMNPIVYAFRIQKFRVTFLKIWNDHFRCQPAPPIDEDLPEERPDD
Experimental: as §5, §6

[5] = target: T4, hA2A AR (Homo sapiens, UniProt P29274); test: Inhibition of NECA-induced increase of cAMP in CHO cells expressing hA2A AR (GloSensor cAMP assay); type: cell-based; conditions: inhibition of NECA-stimulated adenylyl cyclase activity, mean ± standard error
T4 construct: expressed in transfected cells; host or cells: CHO cells
T4 sequence (P29274 whole entry): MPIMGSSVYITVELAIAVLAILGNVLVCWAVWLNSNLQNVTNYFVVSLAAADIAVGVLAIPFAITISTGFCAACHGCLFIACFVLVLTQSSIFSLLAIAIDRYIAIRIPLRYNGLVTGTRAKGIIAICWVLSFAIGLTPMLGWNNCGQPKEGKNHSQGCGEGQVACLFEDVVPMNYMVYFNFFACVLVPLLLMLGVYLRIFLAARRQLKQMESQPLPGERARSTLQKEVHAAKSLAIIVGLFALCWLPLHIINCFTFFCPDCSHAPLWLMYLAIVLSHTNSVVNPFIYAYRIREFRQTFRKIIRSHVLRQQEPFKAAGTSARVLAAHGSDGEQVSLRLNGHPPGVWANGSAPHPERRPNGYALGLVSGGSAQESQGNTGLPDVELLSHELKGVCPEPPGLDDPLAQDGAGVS
Experimental: Compound 18 was also tested to evaluate its antagonist behavior at the hA1 AR by assessing its ability to counteract NECA-induced decrease of cAMP accumulation.
The intrinsic activity of understudy compounds was evaluated through the GloSensor cAMP assay, as described previously. Briefly, cells stably expressing the hA1, hA2A, and hA2B ARs and the biosensor were incubated for 2 h at rt in equilibration medium containing 3% v/v GloSensor cAMP reagent stock solution, 10% FBS, and 87% CO2 independent medium. Afterward, cells were dispensed in the wells of a 384-well plate and the reference agonist NECA or the compounds, at different concentrations, were tested. The antagonist profile of compounds was evaluated by assessing their ability to counteract NECA-induced increase (A2A and A2B ARs) or decrease (A1 AR) of cAMP accumulation. Responses were expressed as percentage of the maximal relative luminescence units (RLU).
as §1

[6] = target: T5, human A2A AR (Homo sapiens, UniProt P29274); test: Radioligand binding, displacement of [3H]-NECA at hA2A AR in CHO cells;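 note: competition binding on membranes from CHO cells stably transfected with human A2A receptor, binding curves fitted by nonlinear regression in GraphPad Prism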
T5 construct: expressed in transfected cells; host or cells: CHO cells
T5 sequence (P29274 whole entry): as above
Experimental: as §5, §6

[7] = tested on: mice; test: Forced swimming test; type: in vivo, mouse; conditions: mouse FST, 15 mg kg^−1 s.c., single dose 26 min before test, last 4 min of 6 min, mean ± SEM of 10 mice; vehicle 193.7 ± 8.9
Experimental: (§2) To execute the tests, mice were divided into groups, each of which consisted of 10 animals. The tests were performed after a single p.o. administration of compound 18 at different dosages (10 mg Kg^−1 and 30 mg Kg^−1). Amitriptyline (15 mg Kg^−1) was used as the reference drug. Compounds were acutely administrated 26 min before the beginning of the experiment. In the FST (Table 4), the duration of immobility was recorded during the last 4 min of the 6 min test.
(§3) Male CD-1 albino mice (22–25 g; Envigo, Varese, Italy) were housed in CeSAL (Centro Stabulazione Animali da Laboratorio, University of Florence, Florence, Italy) and used at least one week after their arrival. Animals were housed in 26 cm × 41 cm cages (12 mice each) and fed with a standard laboratory diet and tap water ad libitum. They were kept at 23 ± 1 °C with a 12 h light/dark cycle, light at 7 a.m. Compound 18 was administered per o.s. whereas amitriptyline was by a s.c. route following the most widely used approach reported in the literature.
Mice were individually placed into glass cylinders (height: 25 cm, diameter: 10 cm) containing 12 cm of water maintained at 22–23 °C for 6 min. Immobility was considered the animal floated in the water, in an upright position, and made only small movements to keep its head above water. The immobility time was recorded during the last 4-min of the 6-min test. A decrease in the duration of immobility is indicative of an antidepressant-like effect.
(§4) Behavioral tests were performed by visual observation by researchers blinded to the treatments. Results were expressed as means ± SEM, variance was analyzed by ANOVA. A Bonferroni’s significant difference procedure was used as post-hoc comparison. p values of less than 0.05 and 0.01 were considered significant. Data were analyzed using the “Origin 8.1” software.

[8] = tested on: mice; test: Tail suspension test; type: in vivo; conditions: mouse TST, 15 mg kg^−1 s.c., single dose, mean ± SEM of 10 mice; vehicle 99.0 ± 6.8
Experimental: as §2
A decrease in the duration of immobility is indicative of an antidepressant-like effect. […] Accordingly, a similar activity was shown in the tail suspension test (Table 5) where the immobility time was measured in the first 2 min, when animals react to the inescapable stress, and in the last 4 min of the test, when the behavioral despair is established. Immobility was defined as the absence of any limb or body movements, except those caused by respiration. A reduction in the duration of the immobility time is indicative of an antidepressant-like effect.
as §3, with “Compound 18 was administered per o.s. whereas amitriptyline was by a s.c. route following the most widely used approach reported in the literature.” left out
A piece of tape was adhered to the upper middle of the tail of each animal, creating a flap with the overlap of tape. […] The duration of the test was 6 min and the immobility time was measured in the first 2 min, when animals react to the inescapable stress, and in the last 4 min of the test, when the behavioral despair is established. […]
Behavioral tests were performed by visual observation by researchers blinded to the treatments. Results were expressed as means ± SEM, variance was analyzed by ANOVA. […] Data were analyzed using the “Origin 8.1” software.

[9] = tested on: mice; test: Sucrose preference test, LPS-induced anhedonia; type: in vivo, mouse; conditions: LPS 1.25 mg kg^−1 i.p. mice, 15 mg kg^−1 s.c. same protocol
Experimental: Anhedonia, or the inability to experience pleasure, is a common symptom of depression. The mood regulatory role of 18 was studied against anhedonia evaluated in the sucrose preference test in animals treated with lipopolysaccharide (LPS), a model of neuroinflammation-induced depressive-like syndrome. Compound 18 (10 mg kg^−1 and 30 mg kg^−1) was daily p.o administered for five consecutive days. Twenty-four hours after the last 18 treatment, LPS 1.25 mg kg^−1 was intraperitoneally injected. Immediately after LPS injection, mice were placed in cages equipped with two bottles: a bottle of 2% sucrose solution and a bottle of water (unsweetened tap water). The consumption of the 2% sucrose solution was evaluated 6 h and 24 h after LPS injection. Amitriptyline (15 mg kg^−1) was used as the reference drug administered following the same protocol.
as §3
Lipopolysaccharide (LPS) from Escherichia coli was purchased from Sigma-Aldrich, (Milan, Italy) freshly dissolved in sterile saline, and injected intraperitoneally (i.p.) at the dose of 1.25 mg kg^−1 [49] after five consecutive days of treatment with compound 18, 1 h after the last administration of the compound. Behavioral tests were performed before 6 h and 24 h after LPS administration.
Mice were placed in cages equipped with a couple of bottles, one containing 2% sucrose solution, the second with water (unsweetened tap water). The consumption of the 2% sucrose solution was evaluated 6 h and 24 h after the beginning of the experiment. The preference index was calculated according to the following formula: preference index = volume consumed sucrose solution/(volume consumed sucrose solution + volume consumed water).
as §4

[10] = displacement of specific [3H]-NECA binding, CHO cells, mean ± SEM, read-out: hA2A Ki
[11] = hA2A AR, as listed in Table 3, read-out: pKi A2A (converted)

Row | SMILES | IC50 [1] [nM] | IC50 [2] [nM] | Ki [3] [nM] | Ki [4] [nM] | IC50 [5] [nM] | Ki [6, 10] [nM] | Ki [6, 11] [nM] | Immobility Time [7] [s] | Immobility Time [8] [s] | Sucrose Preference (%), 6 h ([9]; 6 h after LPS, vehicle + LPS 42.3 ± 3.1) [%] | Sucrose Preference (%), 24 h ([9]; 24 h after LPS, vehicle + LPS 38.0 ± 5.6) [%]
1 | Nc1nc(-c2ccccc2)nc2sc(-c3ccccc3)nc12 [compound 20] | > 30000 | – | – | – | – | – | – | – | – | – | –
2 | Nc1nc(-c2ccco2)nc2sc(Cc3ccccc3Cl)nc12 [compound 8, 2-(2-Chlorobenzyl)-5-(furan-2-yl)thiazolo[5,4-d]pyrimidin-7-amine] | – | 1890 ± 175 | 4786 ± 5.1 | 3.8 ± 0.6 | 39 ± 9 | 0.2 ± 0.03 | 0.2 | – | – | – | –
3 | CN(C)CCC=C1c2ccccc2CCc2ccccc21 [amitriptyline, reference compound] | – | – | – | – | – | – | – | 149.4 ± 4.6 | 61.6 ± 8.4 | 69.1 ± 4.8 | 70.3 ± 6.4
4 | Cc1ccc(-c2nc(N)c3nc(Cc4ccccc4)sc3n2)o1 [compound 5, 2-Benzyl-5-(5-methylfuran-2-yl)thiazolo[5,4-d]pyrimidin-7-amine] | – | 1100 ± 228 | 18.8 ± 1.9 | 6.8 ± 1.2 | 88 ± 21 | 0.8 ± 0.04 | 0.794 | – | – | – | –
5 | Cc1ccc(-c2nc(N)c3nc(Cc4ccccc4F)sc3n2)o1 [compound 19, 2-(2-Fluorobenzyl)-5-(5-methylfuran-2-yl)thiazolo[5,4-d]pyrimidin-7-amine] | – | 1690 ± 228 | 50.2 ± 9.2 | 5.7 ± 0.2 | 51 ± 12 | 0.26 ± 0.01 | 0.257 | – | – | – | –
6 | COc1ccccc1Cc1nc2c(N)nc(-c3ccccc3)nc2s1 [compound 10, 2-(2-Methoxybenzyl)-5-phenylthiazolo[5,4-d]pyrimidin-7-amine] | – | > 30000 | 37.4 ± 1 | 4.5 ± 0.8 | 125 ± 33 | 0.7 ± 0.1 | – | – | – | – | –
7 | COc1ccccc1Cc1nc2c(N)nc(-c3ccco3)nc2s1 [compound 13, 5-(Furan-2-yl)-2-(2-methoxybenzyl)thiazolo[5,4-d]pyrimidin-7-amine] | – | 1540 ± 35 | 48.6 ± 2.4 | 2.4 ± 0.1 | 35 ± 8.5 | 0.2 ± 0.03 | – | – | – | – | –
8 | Cc1ccc(-c2nc(N)c3nc(Cc4ccccc4Cl)sc3n2)o1 [compound 9, 2-(2-Chlorobenzyl)-5-(5-methylfuran-2-yl)thiazolo[5,4-d]pyrimidin-7-amine] | – | 8850 ± 1450 | 8.5 ± 1.6 | 0.5 ± 0.1 | 7.7 ± 1.3 | 0.07 ± 0.006 | 0.0708 | – | – | – | –
